Laboratory results published in patent US20230398130A1, “METHODS AND COMPOSITIONS FOR DIFFERENTIATING STEM CELLS” (Massachusetts Institute of Technology, priority 2020, published 2023).

Tests used:
ISC-enriched organoids [1] = test: Primary screen, 384-well 2.5-D organoid differentiation (ENR+CD, 6 days, Target Selective Inhibitor Library, vs whole-plate median): ATP (CellTiter-Glo 3D, CTG); conditions: primary screen; for Dose.FC.CTG: FC vs plate median; for Z.CTG: standard z score; for SSMD.CTG: strictly standardized mean difference
ISC-enriched organoids [2] = test: Primary screen, 384-well 2.5-D organoid differentiation (ENR+CD, 6 days): carbachol-induced lysozyme secretion (LYZ.S); format: cell-based, murine; conditions: primary screen; for Dose.FC.LYZ.S: FC vs plate median; for Z.LYZ.S: standard z score; for SSMD.LYZ.S: strictly standardized mean difference
Text: (§1) High-throughput screening.

ISC-enriched organoids [3] = test: Primary screen, 384-well 2.5-D organoid differentiation (ENR+CD, 6 days): basal lysozyme secretion (LYZ.NS); format: cell-based, murine; conditions: primary screen; for Dose.FC.LYZ.NS: FC vs plate median; for Z.LYZ.NS: standard z score; for SSMD.LYZ.NS: strictly standardized mean difference
Text: as §1

[4] = 1st of the 4 dose lines of the treatment (dose not given)
[5] = 2nd of the 4 dose lines of the treatment (dose not given)
[6] = 3rd of the 4 dose lines of the treatment (dose not given)
[7] = 4th of the 4 dose lines of the treatment (dose not given)

Row | SMILES | Dose.FC.CTG (ISC-enriched organoids [1]; Dose 0.08 uM) | Z.CTG (ISC-enriched organoids [1]; Dose 0.08 uM) | Dose.FC.CTG (ISC-enriched organoids [1]; Dose 0.40 uM) | Z.CTG (ISC-enriched organoids [1]; Dose 0.40 uM) | Dose.FC.CTG (ISC-enriched organoids [1]; Dose 2.00 uM) | Z.CTG (ISC-enriched organoids [1]; Dose 2.00 uM) | Dose.FC.CTG (ISC-enriched organoids [1]; Dose 10.00 uM) | Z.CTG (ISC-enriched organoids [1]; Dose 10.00 uM) | SSMD.CTG (ISC-enriched organoids [1]; [4]) | SSMD.CTG (ISC-enriched organoids [1]; [5]) | SSMD.CTG (ISC-enriched organoids [1]; [6]) | SSMD.CTG (ISC-enriched organoids [1]; [7]) | Dose.FC.LYZ.S (ISC-enriched organoids [2]; Dose 0.08 uM) | Dose.FC.LYZ.S (ISC-enriched organoids [2]; Dose 0.40 uM) | Dose.FC.LYZ.S (ISC-enriched organoids [2]; Dose 2.00 uM) | Dose.FC.LYZ.S (ISC-enriched organoids [2]; Dose 10.00 uM) | Z.LYZ.S (ISC-enriched organoids [2]; [4]) | Z.LYZ.S (ISC-enriched organoids [2]; [5]) | Z.LYZ.S (ISC-enriched organoids [2]; [6]) | Z.LYZ.S (ISC-enriched organoids [2]; [7]) | further results
1 | CC(C)(C)Cn1c(N)nc2ccc(-c3[nH]c(C(C)(C)C)nc3-c3ccc(F)cc3)nc21 [LY2228820] | −0.299 log 2 fold change | −0.715 | −0.340 log 2 fold change | −0.812 | −0.339 log 2 fold change | −0.810 | −0.332 log 2 fold change | −0.793 | −0.908 | −0.614 | −0.794 | −0.937 | −0.017 log 2 fold change | −0.054 log 2 fold change | −0.130 log 2 fold change | −0.164 log 2 fold change | −0.107 | −0.348 | −0.844 | −1.062 | SSMD.LYZ.S (ISC-enriched organoids [2]; [4]): −0.087; SSMD.LYZ.S (ISC-enriched organoids [2]; [5]): −0.344; SSMD.LYZ.S (ISC-enriched organoids [2]; [6]): −0.692; SSMD.LYZ.S (ISC-enriched organoids [2]; [7]): −1.268; Dose.FC.LYZ.NS (ISC-enriched organoids [3]; Dose 0.08 uM): 0.065 log 2 fold change; Z.LYZ.NS (ISC-enriched organoids [3]; Dose 0.08 uM): 0.569; Dose.FC.LYZ.NS (ISC-enriched organoids [3]; Dose 0.40 uM): −0.100 log 2 fold change; Z.LYZ.NS (ISC-enriched organoids [3]; Dose 0.40 uM): −0.874; Dose.FC.LYZ.NS (ISC-enriched organoids [3]; Dose 2.00 uM): 0.043 log 2 fold change; Z.LYZ.NS (ISC-enriched organoids [3]; Dose 2.00 uM): 0.377; Dose.FC.LYZ.NS (ISC-enriched organoids [3]; Dose 10.00 uM): −0.126 log 2 fold change; Z.LYZ.NS (ISC-enriched organoids [3]; Dose 10.00 uM): −1.099; SSMD.LYZ.NS (ISC-enriched organoids [3]; [4]): 0.186; SSMD.LYZ.NS (ISC-enriched organoids [3]; [5]): −0.798; SSMD.LYZ.NS (ISC-enriched organoids [3]; [6]): 0.123; SSMD.LYZ.NS (ISC-enriched organoids [3]; [7]): −1.170
2 | Cc1cnc(NC(=O)Nc2cc(Br)c(C)cc2OC[C@@H]2CNCCO2)cn1 [LY2603618] | −0.004 log 2 fold change | −0.010 | −0.238 log 2 fold change | −0.567 | −0.396 log 2 fold change | −0.946 | −0.983 log 2 fold change | −2.347 | −0.013 | −0.880 | −1.281 | −2.490 | 0.009 log 2 fold change | −0.147 log 2 fold change | −0.269 log 2 fold change | −0.356 log 2 fold change | 0.056 | −0.953 | −1.737 | −2.300 | SSMD.LYZ.S (ISC-enriched organoids [2]; [4]): 0.065; SSMD.LYZ.S (ISC-enriched organoids [2]; [5]): −0.885; SSMD.LYZ.S (ISC-enriched organoids [2]; [6]): −1.421; SSMD.LYZ.S (ISC-enriched organoids [2]; [7]): −1.890; Dose.FC.LYZ.NS (ISC-enriched organoids [3]; Dose 0.08 uM): −0.005 log 2 fold change; Z.LYZ.NS (ISC-enriched organoids [3]; Dose 0.08 uM): −0.046; Dose.FC.LYZ.NS (ISC-enriched organoids [3]; Dose 0.40 uM): −0.091 log 2 fold change; Z.LYZ.NS (ISC-enriched organoids [3]; Dose 0.40 uM): −0.791; Dose.FC.LYZ.NS (ISC-enriched organoids [3]; Dose 2.00 uM): −0.193 log 2 fold change; Z.LYZ.NS (ISC-enriched organoids [3]; Dose 2.00 uM): −1.685; Dose.FC.LYZ.NS (ISC-enriched organoids [3]; Dose 10.00 uM): −0.233 log 2 fold change; Z.LYZ.NS (ISC-enriched organoids [3]; Dose 10.00 uM): −2.026; SSMD.LYZ.NS (ISC-enriched organoids [3]; [4]): −0.044; SSMD.LYZ.NS (ISC-enriched organoids [3]; [5]): −0.697; SSMD.LYZ.NS (ISC-enriched organoids [3]; [6]): −1.609; SSMD.LYZ.NS (ISC-enriched organoids [3]; [7]): −1.826
